Test results published in patent publication US20130030048A1, “COMPOSITION FOR INDUCING MULTIPLE NUCLEAR DIVISION OF CELLS” (priority 2010, published 2013).

Test system: Human Mammary Epithelial (HME) 50 HT cell line
Test: Multiple nuclear divisions in cultured HME 50 HT cells
Assay type: cell-based
Conditions: HME 50 HT cells in serum-free medium; FIGS. 3 and 4
Experimental: Such a culture medium was treated with the composition comprising the compound of formula II obtained in the Example 1 and the compound of formula III obtained in the Examples 2 to 5, respectively.
And, it was found from the photomicrographs that the cells appeared very healthy and unstressed.

Structure (SMILES) | multiple nuclear divisions in the cell (stained-cell image)
CCC1(N)C(=O)COC=C1C (centres unmarked) [compound of formula III] | multiple nuclear divisions occurred in the cell
C=CC1(N)C(=O)COC=C1C (centres unmarked) [compound of formula II] | multiple nuclear divisions occurred in the cell
